Assay results reported in patent US9290537B2, “Method for cross-linking peptides” (UNIVERSITEIT GENT, priority 2010, dated 2016).

What was measured:
[1] = molecular target: T1, streptavidin (Streptomyces avidinii, UniProt P22629); details: same binding site as the StrepTagII; cited from earlier work
[2] = molecular target: T2, wild type pyrrolysyl-tRNA synthetase of M. mazei (Methanosarcina mazei, UniProt Q8PWY1); assay: Incorporation of furan amino acid in Yellow Fluorescent Protein in E. coli, wild type synthetase; format: cell-based; details: 0, 2, 5 and 10 mM in T7 Express E. coli cultures; YFP fluorescence
T2 construct: expressed in transfected cells
Experimental: (§1) The incorporation of unnatural furan amino acids by the pyrrolysyl-tRNA synthetase and its tRNA-CUA in Yellow Fluorescent Protein (YFP) can be easily evaluated by monitoring its fluorescence with confocal microscopy. Without incorporation of the furan amino acid at the amber codon position a truncated non-fluorescent protein was obtained, therefore the obtained fluorescence intensity paralleled the incorporation efficiency. The incorporation of the furan amino acids was tested with the tRNA-CUA of Methanosarcina mazei (M. mazei) and with the wild type pyrrolysyl-tRNA synthetase of M. mazei and the Tyr384Phe-Tyr306Ala variant of the pyrrolysyl-tRNA synthetase of M. mazei (Yanagisawa et al., Chemistry & Biology, 2008, 15, 1187-1197).
(§2) The furan amino acid of Formula (XId) or the furan amino acid of Formula (XIc) was added in a concentration of 0, 2, 5 and 10 mM to 5 ml cell cultures of T7 Express Competent E. coli (from New England BioLabs) transformed with a pET-Duet-1 plasmid (Novagen) containing the genes for the pyrrolysine tRNA-synthetase, 3 copies of the tRNA-CUA and the mutated YFP, in LB medium with the appropriate antibiotic.

[3] = molecular target: T3, Tyr384Phe-Tyr306Ala variant of the pyrrolysyl-tRNA synthetase of M. mazei (Methanosarcina mazei, UniProt Q8PWY1, Y306A/Y384F); assay: Incorporation of furan amino acid in Yellow Fluorescent Protein in E. coli, mutated synthetase; format: cell-based; details: for incorporation in YFP by the mutated pyrrolysine tRNA-synthetase: 0, 2, 5 and 10 mM in T7 Express E. coli cultures, YFP fluorescence
T3 construct: expressed in transfected cells
Experimental: as §1, §2

[4] = molecular target: T4, wild type pyrrolysyl-tRNA synthetase and tRNA-CUA of M. mazei (Methanosarcina mazei, UniProt Q8PWY1); assay: Incorporation of furan amino acid in thioredoxinA (TrxA), LCMS and trypsin digest; format: cell-based; details: 5 mM in 1 l cell culture; trypsin digest and peptide analysis
T4 construct: expressed in transfected cells
Experimental: In addition to YFP, another protein, thioredoxinA (TrxA), was chosen for providing additional proof of incorporation of a furan amino acid in a protein, through mass characterization after purification.
Experiments were performed similar as in Example 12 with wild type pyrrolysyl-tRNA synthetase and tRNA-CUA of M. mazei, with the mutated TrxA and with the furan amino acid of Formula (XIc) in a concentration of 5 mM in a 1 l cell culture. This yielded 170 μg of protein after purification over a Strep column. Accurate mass determination with full protein LCMS analysis (Orbitrap, Thermo Scientific) found a mass of 13039.7 Dalton (the calculated average mass of the furan-modified oxidized thioredoxinA without the starting methionine is 13039.95 Dalton), proving the incorporation of the furan amino acid in the protein and its stability.

[5] = molecular target: T1, streptavidin; assay: Cross-linking free furan-StrepTagII peptides with streptavidin (furan-oxidation, NBS, MALDI-TOF); format: binding; details: for peptide cross-linking with streptavidin: ten equivalents peptide, 60 min 37° C., one equivalent NBS per peptide, 2 hours 10° C., NaCNBH3
Excerpt: In order to show the cross-link between peptides, an in vitro model system based on the interaction between the StrepTagII and streptavidin was used. The first available Strep-Tag (AWRHPQFGG; SEQ ID NO: 19) able to bind streptavidin could only be attached to the C-terminus of a protein. By changing the sequence of the Strep-Tag, a StrepTagII was developed that can be both N-terminally and C-terminally modified without losing its affinity for streptavidin. Because the intermolecular interactions between the StrepTagII and streptavidin are well characterized, StrepTagII-streptavidin is an excellent model for testing cross-linking.
The free N-terminal and C-terminal furan-StrepTagII peptides 5.2 and 5.3, obtained as described in Example 1, were used to test cross-linking with streptavidin using the furan-oxidation method.
Ten equivalents of the furan-peptides 5.2 or 5.3 were mixed with streptavidin and incubated during 60 min at 37° C. One equivalent of NBS per equivalent of peptide was added as an activation signal and the reaction mixture was incubated during 2 hours at 10° C. with shaking. […] The cross-link between the N-terminal furan-StrepTagII peptide 5.2 and streptavidin was less explicit than the cross-link between the C-terminal furan-StrepTagII peptide 5.3 and streptavidin. This is however not unexpected since the N-terminus of the furan-StrepTagII peptide 5.2 is located outside of its binding site with streptavidin.

[6] = molecular target: T1, streptavidin; assay: Specific inhibition of the cross-link of free furan-StrepTagII peptides with streptavidin by biotin; format: binding; details: ten equivalents peptide, streptavidin and biotin, 60 min 37° C.; one equivalent NBS, 2 hours 10° C.
Experimental: In order to test the specificity of the StrepTagII-streptavidin cross-link, the experiment of Example 5 was repeated in the presence of biotin. As mentioned before, biotin binds streptavidin with high affinity and on the same binding site as the StrepTagII and can therefore act as a specific inhibitor of the cross-link.
Ten equivalents of the furan-StrepTagII peptides 5.2 or 5.3, obtained as described in Example 1, were mixed with streptavidin and biotin and incubated during 60 min at 37° C. One equivalent of NBS per equivalent of peptide was added and the reaction was performed during 2 hours at 10° C. with shaking.

T1 sequence (P22629 25-183, species assumed): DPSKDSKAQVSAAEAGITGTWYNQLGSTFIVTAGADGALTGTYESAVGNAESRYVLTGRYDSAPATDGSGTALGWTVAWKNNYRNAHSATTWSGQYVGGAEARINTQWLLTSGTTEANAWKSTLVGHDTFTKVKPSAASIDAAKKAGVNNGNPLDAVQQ
T3 sequence (Q8PWY1 whole entry Y306A/Y384F): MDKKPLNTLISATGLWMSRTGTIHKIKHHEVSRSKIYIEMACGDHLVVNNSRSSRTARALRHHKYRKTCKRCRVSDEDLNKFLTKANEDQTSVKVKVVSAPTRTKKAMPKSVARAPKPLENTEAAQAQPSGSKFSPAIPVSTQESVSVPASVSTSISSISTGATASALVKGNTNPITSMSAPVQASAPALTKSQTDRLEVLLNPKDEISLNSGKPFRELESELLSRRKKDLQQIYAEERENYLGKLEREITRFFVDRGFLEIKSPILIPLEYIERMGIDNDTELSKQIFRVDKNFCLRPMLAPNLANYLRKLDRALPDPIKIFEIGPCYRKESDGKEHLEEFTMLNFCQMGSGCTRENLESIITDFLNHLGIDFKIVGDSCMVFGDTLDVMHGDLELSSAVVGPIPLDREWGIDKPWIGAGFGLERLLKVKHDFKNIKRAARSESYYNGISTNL
T2 sequence (Q8PWY1 whole entry): as the sequence (Q8PWY1 whole entry Y306A/Y384F) above, with A306Y, F384Y counted along it
T4 sequence (Q8PWY1 whole entry): as the sequence (Q8PWY1 whole entry Y306A/Y384F) above, with A306Y, F384Y counted along it

| Molecule | incorporation in YFP by the wild type synthetase [2] | incorporation in YFP by the mutated pyrrolysine tRNA-synthetase [3] | peptide cross-linking with streptavidin [5] | other results |
| --- | --- | --- | --- | --- |
| O=C(O)CCCC[C@@H]1SC[C@@H]2NC(=O)N[C@@H]21 [biotin] | – | – | – | affinity for streptavidin relative to StrepTagII [1]: much higher affinity |
| NC(CCCCNC(=O)c1ccco1)C(=O)O (centres unmarked) [furan amino acid of Formula (XIc)] | incorporated in YFP by the wild type synthetase in good yield | incorporated both | – | incorporation in YFP by the mutated synthetase, comparison ([3]; compared with Formula (XId) and with wild type synthetase): better than the incorporation of the furan amino acid of Formula (XId), but in lower yield than with the wild type synthetase; incorporation in TrxA [4]: incorporation of the furan amino acid on the correct position of TrxA |
| NC(CCCCNC(=O)NCc1ccco1)C(=O)O (centres unmarked) [furan amino acid of Formula (XId)] | did not incorporate | incorporated both | – | – |
| peptide 5.2: N-terminal furan-StrepTagII peptide with N-terminal (2-furyl)-alanine capped with 2-naphtoic acid (FIG. 8, SEQ ID NO 2) (AWSHPQFEK; N-terminal furylalanine capped with 2-naphthoic acid) | – | – | cross-linking was observed | cross-link with streptavidin compared with peptide 5.3 ([5]; same conditions as E1): less explicit |
| peptide 5.3: C-terminal furan-StrepTagII peptide with C-terminal (2-furyl)-alanine, N-terminally capped with 2-naphtoic acid (FIG. 9, SEQ ID NO 3) (WSHPQFEKA; N-terminal 2-naphthoyl cap; C-terminal 2-furylalanine) | – | – | cross-linking was observed | cross-link with streptavidin in the presence of biotin [6]: no cross-link |
